Where no end group is shown, it is not given here.
Legend:
Assay in all cases: Novispirins vs S. maltophilia (Table 5)
Format in all cases: cell-based, Stenotrophomonas maltophilia
Design in all cases: unit not given here
[1] = system: S. maltophilia 18CP; settings: strain 18CP
Description: (§1) Microorganisms used in this study included 13 different Pseudomonas aeruginosa strains. The AML-654 and LZ-1 strains are recent clinical isolates from the UCLA Clinical Microbiology laboratory. Nine strains (5 mucoid, 4 nonmucoid) were recent CF isolates provided by Dr. Lisa Saiman. All of the P. aeruginosa strains except PAO-1 strain were resistant to multiple conventional antibiotics, and all 9 CF isolates were resistant to 250 μg/ml of tobramycin. We have also tested 5 strains each of Stenotrophomonas maltophilia and Burkholderia cepacia from CF patients (also provided by Dr. Lisa Saiman), two strains of Escherichia coli (ML-35p and DH-5a), and single strains of Staphylococcus aureus[MRSA (methicillin-resistant S. aureus)] and C. albicans.

[2] = system: S. maltophilia 47CG; settings: strain 47CG
Description: as §1

[3] = system: S. maltophilia 36CN; settings: strain 36CN
Description: as §1

[4] = system: S. maltophilia 42CK; settings: strain 42CK
Description: as §1

[5] = system: S. maltophilia 51Cl; settings: strain 51Cl
Description: as §1

Molecule | activity vs S. maltophilia ([1]; +100 mM NaCl) | activity vs S. maltophilia ([1]; +175 mM NaCl) | activity vs S. maltophilia ([1]; LOW SALT CONDITIONS) | activity vs S. maltophilia ([2]; +100 mM NaCl) | activity vs S. maltophilia ([2]; +175 mM NaCl) | activity vs S. maltophilia ([2]; LOW SALT CONDITIONS) | activity vs S. maltophilia ([3]; +100 mM NaCl) | activity vs S. maltophilia ([3]; +175 mM NaCl) | activity vs S. maltophilia ([3]; LOW SALT CONDITIONS) | activity vs S. maltophilia ([4]; +100 mM NaCl) | activity vs S. maltophilia ([4]; +175 mM NaCl) | activity vs S. maltophilia ([4]; LOW SALT CONDITIONS) | activity vs S. maltophilia ([5]; +100 mM NaCl) | activity vs S. maltophilia ([5]; +175 mM NaCl) | activity vs S. maltophilia ([5]; LOW SALT CONDITIONS)
CC(C)C[C@H](NC(=O)[C@H](CCCNC(=N)N)NC(=O)CNC(=O)CNC(=O)[C@@H](N)CCCNC(=N)N)C(=O)N[C@H]1CSSC[C@@H](C(=O)N[C@H](C(=O)NCC(=O)N[C@@H](CCCNC(=N)N)C(N)=O)C(C)C)NC(=O)[C@H](C(C)C)NC(=O)[C@@H]2CSSC[C@H](NC(=O)[C@H](Cc3ccc(O)cc3)NC1=O)C(=O)N[C@@H](CCCNC(=N)N)C(=O)N[C@@H](CCCNC(=N)N)C(=O)N[C@@H](CCCNC(=N)N)C(=O)N[C@@H](Cc1ccccc1)C(=O)N2 [Protegrin PG-1, reference compound] | 0.58 | 0.70 | 0.52 | 0.53 | 0.74 | 0.09 | 0.46 | 0.57 | 0.27 | 0.50 | 0.79 | 0.32 | 0.92 | 1.08 | 0.42
GLLRRLRKKIGEIFKKYG [PGG, reference compound] | 1.63 | 2.34 | 0.86 | 1.08 | 1.64 | 0.73 | 1.05 | 1.11 | 1.10 | 2.67 | 7.10 | 1.51 | 2.20 | 2.85 | 1.31
Polymyxin B [reference compound] | 0.04 | 0.002 | 0.04 | 0.08 | 0.05 | 0.16 | 0.02 | 0.02 | 0.06 | 0.02 | 0.01 | 0.05 | 0.04 | 0.05 | 0.02

Source: patent US6492328B2, “Novispirins: antimicrobial peptides” (priority 2000, dated 2002)
